The target in the experiment is T1, Aβ1-42 (Homo sapiens, UniProt P05067).
T1 construct: Scyllo-inositol and amyloid monomers (Aβ1-42) were compartmentalised in droplets
The experiment in a line: Inhibition of Aβ1-42 aggregation in microdroplet gel beads, flow cytometric analysis. The format is biochemical. The following applies: HF488Aβ1-42 with scyllo-inositol in droplets, amyloid:inhibitor ratios 1:1 or 1:20, versus control without inhibitor; flow cytometry (FIG. 12). As for the experimental part:
FIG. 12: Inhibition of aggregation by scyllo-inositol. Scyllo-inositol and amyloid monomers (Aβ1-42) were compartmentalised in droplets and incubated at ratios of amyloid:inhibitor of 1:1 (central bar at each time point) or 1:20 (right-hand bar at each time point), respectively. The left-hand bar at each time point represents a control with no scyllo-inositol.
A microfluidic droplet generator with a flow focusing geometry was used to generate water-in-oil droplets. The contents of the droplets were determined by the content of the supply stream: peptide buffer solution was mixed with agarose gel solution and trapped by HFE7500 oil containing a surfactant, e.g. 0.5% (w/w) fluorous tri-block copolymers. […]
Since the processed gel beads were stored in aqueous buffer solution, they could be tested via flow cytometry or FACS, a technique requiring aqueous carrier fluid, in order to assess the aggregation process and compare different intensity of aggregates inside agarose beads. Incubated and washed agarose beads with Hilyte488-labelled Aβ1-40 aggregates were sent to FACS and the beads with fluorescent aggregates were counted. […] The percentage of beads containing aggregates was calculated using the program Summit. […]

T1 sequence (P05067 672-713 limits assumed): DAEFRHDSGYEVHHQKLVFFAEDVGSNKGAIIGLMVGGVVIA

Take `O[C@H]1[C@H](O)[C@@H](O)[C@H](O)[C@@H](O)[C@@H]1O` [scyllo-inositol]: the “inhibition of aggregation of Aβ1-42 monomers in gel beads” value was “inhibition of aggregation by scyllo-inositol was detected”.

(Values after US20160011208A1, “ASSAY FOR POLYPEPTIDE AGGREGATION USING MICRODROPLETS” (priority 2013, published 2016).)
